Laboratory results: ChEMBL document CHEMBL3885881, “DrugMatrix”

Organism: Rattus norvegicus
Assay: DrugMatrix - Regimen: Daily Repeat
Assay type: toxicity, organism-based, Sprague-Dawley
Parameters: regimen Daily Repeat, gender Male, age 6-8 weeks
Settings: in vivo, po, route oral GAVAGE, vehicle 100 % WATER; for ABSOLUTE BASOPHIL / ABSOLUTE EOSINOPHIL / ABSOLUTE LYMPHOCYTE / ABSOLUTE MONOCYTE / ABSOLUTE SEGMENTED NEUTROPHIL / BASOPHIL / EOSINOPHIL / ERYTHROCYTE COUNT / HEMATOCRIT / HEMOGLOBIN / LEUKOCYTE COUNT / LYMPHOCYTE / MEAN CORPUSCULAR HEMOGLOBIN / MEAN CORPUSCULAR HEMOGLOBIN CONCENTRATION / MEAN CORPUSCULAR VOLUME / MONOCYTE / NEUTROPHIL / NUCLEATED RED BLOOD CELLS / PLATELET COUNT: tissue Blood; for ALANINE AMINOTRANSFERASE / ALBUMIN / ALKALINE PHOSPHATASE / ASPARTATE AMINOTRANSFERASE / BLOOD UREA NITROGEN / CARBON DIOXIDE / CHLORIDE / CHOLESTEROL / CREATINE PHOSPHOKINASE / CREATININE / GLUCOSE / LACTATE DEHYDROGENASE / LIPASE / PHOSPHORUS / POTASSIUM / SODIUM / TOTAL BILIRUBIN / TOTAL PROTEIN / URIC ACID: tissue Plasma
[1] = 120 mg/kg, 120 h, dose level Low, time 5 day
[2] = 1200 mg/kg, 72 h, dose level High, time 3 day
[3] = 1200 mg/kg, 120 h, dose level High, time 5 day

CCN(CC)CCNC(=O)c1cc(S(C)(=O)=O)ccc1OC [TIAPRIDE]
ABSOLUTE BASOPHIL [1]: 0 CELLS/uL | ABSOLUTE EOSINOPHIL [1]: 28 CELLS/uL | ABSOLUTE LYMPHOCYTE [1]: 7405.67 CELLS/uL | ABSOLUTE MONOCYTE [1]: 0 CELLS/uL | ABSOLUTE SEGMENTED NEUTROPHIL [1]: 299.67 CELLS/uL | BASOPHIL [1]: 0% | EOSINOPHIL [1]: 0.33% | ERYTHROCYTE COUNT [1]: 5.54 x10E6/uL | HEMATOCRIT [1]: 34.8% | HEMOGLOBIN [1]: 13.1 G/DL | LEUKOCYTE COUNT [1]: 7.73 x10E3/uL | LYMPHOCYTE [1]: 95.67% | MEAN CORPUSCULAR HEMOGLOBIN [1]: 23.67 pg | MEAN CORPUSCULAR HEMOGLOBIN CONCENTRATION [1]: 37.7 G/DL | MEAN CORPUSCULAR VOLUME [1]: 62.73 fL | MONOCYTE [1]: 0% | NEUTROPHIL [1]: 4% | NUCLEATED RED BLOOD CELLS [1]: 0 /100WBC | PLATELET COUNT [1]: 1102.33 x10E3/uL | ALANINE AMINOTRANSFERASE [1]: 42 u/L | ALBUMIN [1]: 4.3 G/DL | ALKALINE PHOSPHATASE [1]: 382 u/L | ASPARTATE AMINOTRANSFERASE [1]: 80.33 u/L | BLOOD UREA NITROGEN [1]: 15.33 mg/dL | CARBON DIOXIDE [1]: 27.67 mmol/L | CHLORIDE [1]: 103 MEQ/L | CHOLESTEROL [1]: 70.67 mg/dL | CREATINE PHOSPHOKINASE [1]: 223.33 u/L | CREATININE [1]: 0.19 mg/dL | GLUCOSE [1]: 142.33 mg/dL | LACTATE DEHYDROGENASE [1]: 132.33 u/L | LIPASE [1]: 8.33 u/L | PHOSPHORUS [1]: 11.83 mg/dL | POTASSIUM [1]: 6.07 MEQ/L | SODIUM [1]: 149.23 MEQ/L | TOTAL BILIRUBIN [1]: 0.27 mg/dL | TOTAL PROTEIN [1]: 6.03 G/DL | URIC ACID [1]: 0.97 mg/dL | ABSOLUTE BASOPHIL [2]: 0 CELLS/uL | ABSOLUTE EOSINOPHIL [2]: 187.33 CELLS/uL | ABSOLUTE LYMPHOCYTE [2]: 11272.67 CELLS/uL | ABSOLUTE MONOCYTE [2]: 0 CELLS/uL | ABSOLUTE SEGMENTED NEUTROPHIL [2]: 806.67 CELLS/uL | BASOPHIL [2]: 0% | EOSINOPHIL [2]: 1.33% | ERYTHROCYTE COUNT [2]: 6.23 x10E6/uL | HEMATOCRIT [2]: 38.93% | HEMOGLOBIN [2]: 14.8 G/DL | LEUKOCYTE COUNT [2]: 12.27 x10E3/uL | LYMPHOCYTE [2]: 92.33% | MEAN CORPUSCULAR HEMOGLOBIN [2]: 23.73 pg | MEAN CORPUSCULAR HEMOGLOBIN CONCENTRATION [2]: 38.03 G/DL | MEAN CORPUSCULAR VOLUME [2]: 62.5 fL | MONOCYTE [2]: 0% | NEUTROPHIL [2]: 6.33% | NUCLEATED RED BLOOD CELLS [2]: 0 /100WBC | PLATELET COUNT [2]: 1394 x10E3/uL | ALANINE AMINOTRANSFERASE [2]: 38 u/L | ALBUMIN [2]: 4.53 G/DL | ALKALINE PHOSPHATASE [2]: 408 u/L | ASPARTATE AMINOTRANSFERASE [2]: 80 u/L | BLOOD UREA NITROGEN [2]: 22.33 mg/dL | CARBON DIOXIDE [2]: 23.33 mmol/L | CHLORIDE [2]: 107 MEQ/L | CHOLESTEROL [2]: 76.33 mg/dL | CREATINE PHOSPHOKINASE [2]: 431 u/L | CREATININE [2]: 0.22 mg/dL | GLUCOSE [2]: 189.67 mg/dL | LACTATE DEHYDROGENASE [2]: 523.33 u/L | LIPASE [2]: 8.33 u/L | PHOSPHORUS [2]: 14.8 mg/dL | POTASSIUM [2]: 6.75 MEQ/L | SODIUM [2]: 147.23 MEQ/L | TOTAL BILIRUBIN [2]: 0.27 mg/dL | TOTAL PROTEIN [2]: 6.37 G/DL | URIC ACID [2]: 1.9 mg/dL | ABSOLUTE BASOPHIL [3]: 0 CELLS/uL | ABSOLUTE EOSINOPHIL [3]: 212 CELLS/uL | ABSOLUTE LYMPHOCYTE [3]: 15513 CELLS/uL | ABSOLUTE MONOCYTE [3]: 0 CELLS/uL | ABSOLUTE SEGMENTED NEUTROPHIL [3]: 1775 CELLS/uL | BASOPHIL [3]: 0% | EOSINOPHIL [3]: 1% | ERYTHROCYTE COUNT [3]: 5.86 x10E6/uL | HEMATOCRIT [3]: 36.5% | HEMOGLOBIN [3]: 13.9 G/DL | LEUKOCYTE COUNT [3]: 17.5 x10E3/uL | LYMPHOCYTE [3]: 89.33% | MEAN CORPUSCULAR HEMOGLOBIN [3]: 23.73 pg | MEAN CORPUSCULAR HEMOGLOBIN CONCENTRATION [3]: 38.1 G/DL | MEAN CORPUSCULAR VOLUME [3]: 62.33 fL | MONOCYTE [3]: 0% | NEUTROPHIL [3]: 9.67% | NUCLEATED RED BLOOD CELLS [3]: 0 /100WBC | PLATELET COUNT [3]: 1226 x10E3/uL | ALANINE AMINOTRANSFERASE [3]: 48.67 u/L | ALBUMIN [3]: 4.17 G/DL | ALKALINE PHOSPHATASE [3]: 452.67 u/L | ASPARTATE AMINOTRANSFERASE [3]: 83.67 u/L | BLOOD UREA NITROGEN [3]: 17.33 mg/dL | CARBON DIOXIDE [3]: 26.33 mmol/L | CHLORIDE [3]: 102.67 MEQ/L | CHOLESTEROL [3]: 66 mg/dL | CREATINE PHOSPHOKINASE [3]: 508.33 u/L | CREATININE [3]: 0.27 mg/dL | GLUCOSE [3]: 161.67 mg/dL | LACTATE DEHYDROGENASE [3]: 191.33 u/L | LIPASE [3]: 8 u/L | PHOSPHORUS [3]: 14.53 mg/dL | POTASSIUM [3]: 6.21 MEQ/L | SODIUM [3]: 146.03 MEQ/L | TOTAL BILIRUBIN [3]: 0.27 mg/dL | TOTAL PROTEIN [3]: 6.03 G/DL | URIC ACID [3]: 1.73 mg/dL
